Measured values from patent US5260321A, “Use of 1,4-dihydropyridine derivatives and combinations thereof with calcitonins” (priority 1984, dated 1993).

Assays:
Assay type in all cases: in vivo
[1] = test system: ionized calcium concentration in the blood; experiment: Rabbit test: ionized calcium in blood by calcium ion selective electrode; conditions: PN alone
Procedure: (§1) The effect of the compounds of the invention in lowering calcium levels is indicated in any standard animal test for hypercalcemic activity. In one test the compound is administered to rabbits (e.g. ca. 1 kg in weight) either as a suspension e.g. 0.1 to 5 mg (e.g. 0, 1 mg) per ml of solution (i.e. blood plasma with ca. 1-5% alcohol) and 0.1-5 mg/kg animal body weight by intravenous infusion (0.5 ml per hour) or orally e.g. 1 to 5 mg/kg animal body weight as a suspension in distilled water. A significant lowering of calcium ions is observed using standard measuring techniques for calcium ions in the blood, e.g. using a calcium ion selective electrode, or by photometric methods.
One method for measuring calcium ion concentrations is as follows: […]
The concentration of ionized calcium in the blood is measured potentiometrically as follows: The difference in potential between the reference electrode and the Ca^2+ -selective electrode is measured differentially relative to the common electrode. The difference is amplified and the analogue signal produced by the amplifier is processed by a digital voltmeter and continuously recorded as a function of time, the difference in voltage being proportional to the Ca^2+ concentration. […]

[2] = test system: total calcium; experiment: Rabbit intravenous experiment repeated, total calcium measured photometrically; conditions: intravenous infusion, photometric
Procedure: as §1
The intravenous experiment is repeated measuring total calcium photometrically. Drop in calcium levels over 11/2 hours=23%, over 21/2 hours=30%.

[3] = test system: neointimal lesion development in the rat carotid artery; experiment: Inhibition of neointimal lesion development in the rat carotid artery (balloon catheterization test); conditions: for Maximal intimal height: mean ± SD
Procedure: The anti-atherogenic activity has been confirmed also by measurement of the inhibition of neointimal lesion development in the rat carotid artery (balloon catheterization test, essentially as published in A. W. Clowes et al., Lab. Invest. 49 [1983]208-215).
In a first experiment a group of 12 rats was given PN 250 μg/kg/day in 10% ethanol-water s.c. A control group of 9 animals was non-injected and a further control group of 7 animals was vehicle-injected. Animals were randomized into 3 groups for catheterization and were weighed every other day throughout the study. Rats were anesthetized with ether inhalation. The […] region was shaved and the external branch of the left common carotid artery was isolated by an incision from the lower mandible to the clavicle, followed by retracting the submaxillary gland (lateral) and several muscle bundles including the sternohyoideus (medial), sternomastoideus (lateral) and digastricus posterior belly (lateral). […] Lidocaine was applied to vasodilate during catheter introduction. Following an incision with iris scissors, a Fogarty arterial embolectomy catheter (No. 2F) was inserted into the external branch of the carotid, passed into the aortic arch and slightly withdrawn to assure inflation of the catheter within the common carotid artery. The catheter was inflated using approximately 900 mmHg air pressure, drawn distally and deflated. This was repeated three times to assure complete de-endothelialization of the common carotid. The catheter was removed, the artery ligated and the incision closed. Under these conditions the carotid is completely de-endothelialized.
Animals were sacrificed 14 days after ballooning in the same sequence as the catheterization. Thirty minutes before fixation the animals were injected with a 2.25% Evan's Blue dye solution (1.5 mg/kg iv) to differentiate between the neointimal and re-endothelialized areas. Areas of the carotid that have endothelial regrowth exclude the dye and appear white. The remaining areas that lack endothelium are stained blue. Whole body (beating heart) perfusion fixations (90-110 mmHg) were then performed on anesthetized (sodium pentobarbital, 50.0 mg/kg ip) animals using 200 ml of 1% glutaraldehyde in 0.15M sodium cacodylate buffer (pH 7.4, 37° C., 410 mOsm) followed by 400 ml of 3% glutaraldehyde in 0.15M sodium cacodylate. The entry site of the fixative was a puncture in the left ventricle, with efflux collected by vacuum suction from the right atrium. The thoracic aorta flow was restricted to optimize carotid perfusion. Successful fixation was judged by upper body rigidity and an absence of blood from the large arteries.
In a second experiment the procedure as described above was followed, with groups consisting of non-injected controls (n=8), animals treated with PY (n=5) or PN (n=8). Animals received drug for 2 days before catheterization and to the conclusion of the study (14 days). PY and PN were given at 1.0 mg/kg in 10% EtOH-water s.c. All animals (controls and drug-treated) were randomized into 3 groups for catheterization.
After each experiment the fixed carotid was removed and cut into 3 segments (distal, central, proximal). Tissue processing of only the central segment included 18 hours in 3% buffered glutaraldehyde, buffer rinsing, dehydration in an ascending ethanol series and infiltration with Spurr's resin. The samples were embedded with cross-sectional orientation so that sectioning (0.5 μm) would include blue areas which have not re-endothelialized and show continued proliferative responses. A two-step polychromatic stain utilizing toluidine blue and 1.0% basic fuchsin rendered histological differentiation to nuclear, cytoplasmic and extracellular connective matrix components.
All light microscopic histology slides were randomized, encoded and evaluated utilizing a Zeiss standard microscope and the Videoplan computerized image analyzer. Vessel measurements included maximum lesion height. […]

[4] = Expt. 2, 1.0 mg/kg s.c. from 2 days before catheterization to day 14, controls 72.4 ± 17.4

| SMILES | Lowering of ionized calcium ([1]; intravenous infusion, 0.5 mg/0.5/over 1 hour) | Lowering of ionized calcium ([1]; oral 1 mg/kg) | Drop in calcium levels (total calcium) ([2]; over 11/2 hours) | Drop in calcium levels (total calcium) ([2]; over 21/2 hours) | Inhibition of lesion development ([3]; Expt. 1, 0.25 mg/kg/d) | Maximal intimal height ([3]; Expt. 1, 0.25 mg/kg/day s.c., 14 days after ballooning, controls 84.9 ± 21.3) | Maximal intimal height [3, 4] | Inhibition of lesion development ([3]; Expt. 2, 1.0 mg/kg/d) | Tolerability ([3]; rats, s.c., all doses used (0.25 and 1.0 mg/kg)) |
| --- | --- | --- | --- | --- | --- | --- | --- | --- | --- |
| COC(=O)C1=C(C)NC(C)=C(C(=O)OC(C)C)C1c1cccc2nonc12 (centres unmarked) [PN, 4-(2,1,3-benzoxadiazol-4yl)-1,4-dihydro-2,6-dimethyl-3-methoxycarbonyl-pyridine-5-carboxylic acid isopropyl ester] | 10-20% | 5-10% | 23% | 30% | 26% | 63.2 ± 19.9 μm | 38.9 ± 22.0 μm | 46% | – |
| CCOC(=O)C1=C(C)NC(C)=C(C(=O)OCC)C1c1cccc2nonc12 [PY, 4-(2,1,3-benzoxadiazol-4-yl)-1,4-dihydro-2,6-dimethylpyridine-3,5-dicarboxylic acid diethyl ester] | – | – | – | – | – | – | 58.6 ± 18.1 μm | 19% | tolerated at all doses used |
